Results: patent publication US20220267268A1, “NEW TRICYCLIC 5-HT2 ANTAGONISTS” (Anamar AB, priority 2019, published 2022)
Where a name gives a salt, the structure may show the parent alone. Marks after values point to notes of the source that are not given here.

How the values were obtained:
5-HT2B receptor [1] = molecular target: T1, 5-HT2B receptor (Homo sapiens, UniProt P41595); experiment: 5-HT2B receptor binding, ligand displacement assay with 3H-LSD radioligand; details: human receptor in CHO-K1; for inhibition at 0.01 µM: 10 nM compound; for inhibition at 0.1 µM: 100 nM compound; for inhibition at 0.001 µM: 1 nM compound
T1 construct: host or cells: CHO-K1
Procedure: (§1) 5-HT2B receptor binding (performed at Eurofins Panlabs Taiwan, Ltd.) to human receptor protein expressed in CHO-K1 cells was determined in a ligand displacement assay using ^3H-lysergic acid diethylamide (LSD) as radioligand and ketanserine as a standard reference compound, or alternatively*, with ^3H-mesulergine and SB 206553 as reference. Data is presented as % displacement of radioligand at indicated compound concentrations, see Table 1.

[2] = tested on: bleomycin-induced dermal fibrosis; experiment: Anti-fibrotic effects in bleomycin-induced dermal fibrosis in mice; format: in vivo, female DBA/2 mice
Procedure: Skin fibrosis was induced in female DBA/2 mice by subcutaneous injections of bleomycin (2.5 mg/kg) every other day for three or six weeks.
For preventive treatment, mice were challenged with bleomycin for three weeks and treatment by oral gavage was established simultaneously. For therapeutic treatment, fibrosis was first induced by injections of bleomycin for three weeks in the absence of treatment. Thereafter, treatment by oral gavage was initiated, while injections of bleomycin were continued. The outcome was analyzed three or six weeks after the first injection of bleomycin for preventive and therapeutic treatment, respectively. Mice injected with 0.9% NaCl, the vehicle of bleomycin, served as non-fibrotic controls and mice treated with ddH2O (the vehicle for test compound) by oral gavage served as negative controls.
Groups 1-8 of n=8 Female DBA/2 Mice: Preventive dosing 3 weeks in total 1. 0.9% NaCl (injection) and ddH2O (orally) week 1-3. 2. Bleomycin (injection) and ddH2O (orally) week 1-3. 3. Bleomycin (injection) and test compound (10 mg/kg, qd, orally) week 1-3. Therapeutic dosing 6 weeks in total 4. 0.9% NaCl (injection) week 1-6 and ddH2O (orally) week 4-6. 5. Bleomycin (injection) week 1-3, 0.9% NaCl (injection) week 4-6, and ddH2O (orally) week 4-6. 6. Bleomycin (injection) week 1-6 and ddH2O (orally) week 4-6. 7. Bleomycin (injection) week 1-6 and test compound (1 mg/kg, qd, orally) week 4-6. 8. Bleomycin (injection) week 1-6 and test compound (10 mg/kg, qd, orally) week 4-6.
Defined areas of the skin of the upper back were excised, subsequently fixed in 4% formalin for 6 h and embedded in paraffin. Skin sections were cut and stained with hematoxylin/eosin. The dermal thickness (measured as distance between the epidermal-dermal border to the dermal-subcutaneous border in arbitrary units) was quantified in 4 different sections from different sites with 2 measurements per section. The analysis was performed in a blinded manner.
Myofibroblasts are characterized by the expression of α-smooth muscle actin (αSMA). Fibroblasts positive for αSMA were detected in paraffin-embedded slides from the upper back by incubation with monoclonal anti-αSMA antibodies (clone 1A4, Sigma-Aldrich, Steinheim, Germany). The expression was visualized with horseradish peroxidase labeled secondary antibodies and 3,3-diaminobenzidine tetrahydrochloride (DAB) (Sigma-Aldrich). Monoclonal mouse IgG antibodies (Calbiochem, San Diego, Calif., USA) were used for controls. The analysis was performed by a blinded reviewer evaluating the myofibroblasts in four sections per sample.
The amount of collagen protein (ug/mL) in skin samples was determined via hydroxyproline assay. After digestion of full skin thickness punch biopsies (Ø 3 mm) derived from the upper back in 6 M HCl for three hours at 120° C., the pH of the samples was adjusted to 6 with 6 M NaOH. Afterwards, 0.06 M chloramine T was added to each sample and incubated for 20 m at room temperature. Next, 3.15 M perchloric acid and 20% p-dimethylaminobenzaldehyde were added and samples were incubated for additional 20 min at 60° C. The absorbance was determined at 557 nm with a Spectra MAX 190 microplate spectrophotometer using a standard curve generated with purified type I collagen (Sigma-Aldrich).
All data are presented as group mean values (±SEM), and differences between the groups were tested for their statistical significance by Mann-Whitney U non-parametric test for non-related samples. P-values less than 0.05 were considered significant.

5-HT2B receptor [3] = molecular target: T1, 5-HT2B receptor; experiment: 5-HT2B receptor antagonism, inhibition of 5-HT stimulated IP-1 accumulation (HTRF) in CHO-K1 cells; format: cell-based; details: 5-HT (5 nM) stimulated IP-1 accumulation; for inhibition at 0.001 µM: 1 nM compound; for inhibition at 0.01 µM: 10 nM compound; for inhibition at 0.1 µM: 100 nM compound; for inhibition at 1 µM: 1000 nM compound
Procedure: (§2) 5-HT2B receptor antagonism (performed at Eurofins Panlabs Taiwan, Ltd.) was determined in CHO-K1 cells expressing human receptor protein as inhibition of 5-HT (5 nM) stimulated IP-1 accumulation measured by HTRF quantitation. SB 206553 was used as a standard reference compound. The antagonistic response is expressed as % inhibition of the 5-HT induced effect, see Table 2.

5-HT2B receptor [4] = molecular target: T1, 5-HT2B receptor; experiment: 5-HT2B receptor agonism, IP-1 accumulation in CHO-K1 cells without prior 5-HT stimulation; format: cell-based; details: % of IP-1 accumulation induced by 5-HT (1 uM); for 5-HT2B receptor agonism (% of positive control) 1 nM: 1 nM compound; for 5-HT2B receptor agonism (% of positive control) 10 nM: 10 nM compound; for 5-HT2B receptor agonism (% of positive control) 100 nM: 100 nM compound; for 5-HT2B receptor agonism (% of positive control) 1000 nM: 1000 nM compound
Procedure: as §2
5-HT2B receptor agonism (performed at Eurofins Panlabs Taiwan, Ltd.) was determined in the same model as described above in Example 50 without prior stimulation with 5-HT. The agonistic response is expressed as % of the IP-1 accumulation induced by 5-HT (1 uM) stimulation, see Table 3.

5-HT2B receptor [5] = molecular target: T1, 5-HT2B receptor; experiment: 5-HT2B receptor binding, ligand displacement assay, alternative (*) with 3H-mesulergine; details: * 3H-mesulergine radioligand, SB 206553 reference
Procedure: as §1

[6] = Preventive dosing, Group 3: 10 mg/kg qd orally week 1-3, mean (SEM), p < 0.001 vs group 2
[7] = Therapeutic dosing, Group 7: 1 mg/kg qd orally week 4-6, mean (SEM)
[8] = Therapeutic dosing, Group 8: 10 mg/kg qd orally week 4-6, mean (SEM)
[9] = preventive and therapeutic treatment, compared to vehicle-treated, bleomycin-challenged mice

T1 sequence (P41595 whole entry): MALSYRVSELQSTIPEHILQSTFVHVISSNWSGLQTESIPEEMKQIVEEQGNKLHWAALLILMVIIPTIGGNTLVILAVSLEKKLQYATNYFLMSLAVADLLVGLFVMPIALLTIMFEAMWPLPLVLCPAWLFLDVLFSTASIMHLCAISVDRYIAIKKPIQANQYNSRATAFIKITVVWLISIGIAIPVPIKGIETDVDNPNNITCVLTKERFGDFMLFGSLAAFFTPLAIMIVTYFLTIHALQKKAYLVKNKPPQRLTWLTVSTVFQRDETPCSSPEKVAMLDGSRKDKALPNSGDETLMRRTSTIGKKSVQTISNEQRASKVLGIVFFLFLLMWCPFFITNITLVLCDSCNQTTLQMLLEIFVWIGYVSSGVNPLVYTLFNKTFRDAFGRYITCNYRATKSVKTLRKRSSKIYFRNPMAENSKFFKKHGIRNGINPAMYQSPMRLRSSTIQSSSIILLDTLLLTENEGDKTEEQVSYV

Compound	inhibition at 0.01 µM (5-HT2B receptor [1]) [%]	inhibition at 0.1 µM (5-HT2B receptor [1]) [%]	inhibition at 0.001 µM (5-HT2B receptor [3]) [%]	inhibition at 0.01 µM (5-HT2B receptor [3]) [%]	inhibition at 0.1 µM (5-HT2B receptor [3]) [%]	5-HT2B receptor agonism (% of positive control) 1 nM (5-HT2B receptor [4]) [%]	5-HT2B receptor agonism (% of positive control) 10 nM (5-HT2B receptor [4]) [%]	5-HT2B receptor agonism (% of positive control) 100 nM (5-HT2B receptor [4]) [%]	inhibition at 0.001 µM (5-HT2B receptor [1]) [%]	inhibition at 1 µM (5-HT2B receptor [3]) [%]	5-HT2B receptor agonism (% of positive control) 1000 nM (5-HT2B receptor [4]) [%]	also measured
CC1CN(C(=N)N)c2ccc3ccccc3c21.Cl (centres unmarked) [Example 3, 1-Methyl-1,2-dihydro-3H-benzo[e]indole-3-carboximidamide hydrochloride]	63	90	2	50	100	−3	0	−3				Dermal thickness (arbitrary units) [2, 6]: 3.52 (0.05) *** arbitrary units; Hydroxyproline (ug/mL) [2, 6]: 3.44 (0.11) *** ug/mL; Myofibroblast counts [2, 6]: 1.31 (0.06) ***; Dermal thickness (arbitrary units) [2, 7]: 3.96 (0.06) ^++### arbitrary units; Hydroxyproline (ug/mL) [2, 7]: 3.85 (0.12) ^## ug/mL; Myofibroblast counts [2, 7]: 1.72 (0.07) ^+###; Dermal thickness (arbitrary units) [2, 8]: 3.56 (0.04) ^+++### arbitrary units; Hydroxyproline (ug/mL) [2, 8]: 3.58 (0.09) ^++### ug/mL; Myofibroblast counts [2, 8]: 1.41 (0.07) ^++###; Myofibroblast counts [2, 9]: significantly reduced; hydroxyproline content [2, 9]: significantly reduced; hypodermal thickening [2, 9]: significantly reduced; antifibrotic effect, 10 mg/kg/qd compared to 1 mg/kg/qd ([2]; therapeutic regimen): more potent antifibrotic effect
CC1CN(C(=N)N)c2ccc3c(Cl)cccc3c21.Cl (centres unmarked) [Example 11, 6-Chloro-1-methyl-1,2-dihydro-3H-benzo[e]indole-3-carboximidamide hydrochloride]	97	103	53	89	99	1	5	−2	63	96	1	
CC1CN(C(=N)N)c2ccc3c(Br)cccc3c21.Cl (centres unmarked) [Example 2, 6-Bromo-1-methyl-1,2-dihydro-3H-benzo[e]indole-3-carboximidamide hydrochloride]	96	98	56	91	95	−3	−5	−3	72	96	−4	
CC1CN(C(=N)N)c2ccc3cc(F)ccc3c21.Cl (centres unmarked) [Example 1, 7-Fluoro-1-methyl-1,2-dihydro-3H-benzo[e]indole-3-carboximidamide hydrochloride]	49	88	2	14	80	−1	2	7	9	97	0	
CC1CN(C(=N)N)c2ccc3c(C(F)(F)F)cccc3c21 (centres unmarked) [Example 35, 1-Methyl-6-(trifluoromethyl)-1,2-dihydro-3H-benzo[e]indole-3-carboximidamide 2,2,2-trifluoroacetic acid salt]	61	92							11			5-HT2B receptor binding (% displacement) 1 nM (5-HT2B receptor [5]; 1 nM compound): 21%; inhibition at 0.01 µM (5-HT2B receptor [5]; 10 nM compound): 52%; 5-HT2B receptor binding (% displacement) 100 nM (5-HT2B receptor [5]; 100 nM compound): 91%
CC1CN(C(=N)N)c2ccc3c(F)cccc3c21 (centres unmarked) [Example 33, 6-Fluoro-1-methyl-1,2-dihydro-3H-benzo[e]indole-3-carboximidamide 2,2,2-trifluoroacetic acid salt]	82	101	29	81	99	−1	4	26	28	100	−1	
